# Target: T1, B19V (native virus capsid) (Human parvovirus B19 strain HV, UniProt Q9PZT0)
# T1 construct: gene vp; icosahedral capsid of 60 VP1 and VP2 proteins; with Minor capsid protein VP1
# Assay: hemagglutination inhibition of human red blood cells by soluble Gb4; binding to cells also by qPCR
# Format: cell-based
# Conditions: pH 6.3, PiBS, room temperature; ceramide of natural source (Matreya), in DMSO; Gb3 as control lipid
substance,measurement,value
globoside [Gb4],"hemagglutination inhibition, effective concentration",0.2 to 0.4 µM

# Reference: paper PMC8087101, “Human parvovirus B19 interacts with globoside under acidic conditions as an essential step in endocytic trafficking” (PLoS Pathogens, 2021)
